Laboratory results reported in US11806377B2, “Oral use of coriander seed oil for a soothing effect on reactive skin” (Societe d'Exploitation de Produits Pour les Industries …, priority 2018, dated 2023).
Marks after values point to notes of the source that are not given here.

Biological target: T1, TRPA1 (Homo sapiens, UniProt O75762)
T1 construct: Human sensory neurons were obtained from pluripotent stem cells and cultured in culture plates; endogenous in cells; host or cells: human pluripotent-stem-cell-derived sensory neurons co-cultured with human keratinocytes
T1 sequence (O75762 whole entry): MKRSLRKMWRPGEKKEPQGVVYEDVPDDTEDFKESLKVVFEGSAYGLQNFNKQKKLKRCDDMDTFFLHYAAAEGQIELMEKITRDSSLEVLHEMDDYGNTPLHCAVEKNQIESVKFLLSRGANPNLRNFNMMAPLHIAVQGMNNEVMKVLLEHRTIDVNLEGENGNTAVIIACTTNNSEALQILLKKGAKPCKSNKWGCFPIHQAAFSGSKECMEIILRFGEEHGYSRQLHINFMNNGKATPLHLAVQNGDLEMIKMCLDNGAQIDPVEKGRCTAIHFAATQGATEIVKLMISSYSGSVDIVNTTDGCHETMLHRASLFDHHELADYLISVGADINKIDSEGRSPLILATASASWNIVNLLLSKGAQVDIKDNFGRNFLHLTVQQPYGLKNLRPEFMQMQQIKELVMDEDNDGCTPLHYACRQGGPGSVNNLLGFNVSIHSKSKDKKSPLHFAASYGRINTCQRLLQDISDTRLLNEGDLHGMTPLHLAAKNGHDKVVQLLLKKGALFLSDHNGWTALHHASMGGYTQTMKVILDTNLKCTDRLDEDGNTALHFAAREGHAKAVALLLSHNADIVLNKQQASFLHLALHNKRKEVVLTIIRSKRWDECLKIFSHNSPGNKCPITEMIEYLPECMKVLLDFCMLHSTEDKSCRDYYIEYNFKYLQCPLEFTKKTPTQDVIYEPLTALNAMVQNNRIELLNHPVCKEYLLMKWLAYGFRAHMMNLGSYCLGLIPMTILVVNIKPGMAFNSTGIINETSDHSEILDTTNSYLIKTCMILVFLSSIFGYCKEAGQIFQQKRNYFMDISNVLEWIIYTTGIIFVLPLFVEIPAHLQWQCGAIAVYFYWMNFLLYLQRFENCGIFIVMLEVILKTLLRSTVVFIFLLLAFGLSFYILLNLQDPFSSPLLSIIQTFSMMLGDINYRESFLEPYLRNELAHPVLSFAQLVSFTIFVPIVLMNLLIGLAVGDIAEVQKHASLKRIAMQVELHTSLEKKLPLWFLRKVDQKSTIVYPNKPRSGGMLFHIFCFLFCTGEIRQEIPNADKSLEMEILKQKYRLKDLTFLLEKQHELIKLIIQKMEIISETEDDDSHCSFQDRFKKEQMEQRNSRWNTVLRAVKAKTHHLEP
Assay: Protection against activation of TRPA1 following AITC stimulation, Fluo-4 AM calcium fluorescence in keratinocyte-sensory neuron co-culture
Type: cell-based
Settings: for Activation of TRPA1 following stimulation with AITC, fluorescence, Mean +/- sem: human keratinocyte-neuron co-culture, 1 mM AITC, 6 replicates, 3 minutes
Procedure: The in vitro example described here relates to the reduction in the activation of the receptor TRPA1, involved in the induction of sensations of itching/irritation/scratching/pain of the skin following certain stimulations.
Protection Against Activation of TRPA1 (Neuron Experts Service)
Human sensory neurons were obtained from pluripotent stem cells and cultured in culture plates. Human keratinocytes were grown and then seeded above the neurons.
After 19 days of co-culture at 37° C. in a humid atmosphere under 5% CO2, the test products or the positive reference, HC030031 (C18H21N5O3), at 10 μM, and also the fluorescent probe Fluo-4 AM, were added to the co-culture. The Fluo-4 AM probe makes it possible to follow the rapid kinetics of the variation of the intracellular calcium concentration by measuring in real time its fluorescence intensity, and the calcium flux is associated with activation of TRPA1.
After 30 minutes of incubation, the culture medium was removed and the cultures were washed and then reincubated with the test products. Immediately afterwards, they were placed under an inverted microscope and observed in epifluorescence. […] Five seconds after starting the recording, the neurons were stimulated with 10^-3 M AITC (allyl isothiocyanate).
The experiments were carried out in 6 replicates. The fluorescence was analyzed for 3 minutes.
The fluorescence values were expressed as means+/−sem [standard error of the mean=standard deviation/root (number of values)].
For each condition, the percentages of stimulation and of protection were calculated as follows: % stimulation=100×[mean(condition)]/[mean(cells stimulated with AITC)] % protection=100×[mean(condition)−mean(cells stimulated with AITC)]/[mean(unstressed cells)−mean(cells stimulated with AITC)].
Statistical analysis was performed by a one-way ANOVA test with a significance threshold set at 5%, by comparing the conditions in pairs. A difference between the efficacy of two products was considered: • significant if p<0.05; • “at the limit of significance” if 0.05≤p<0.1; • and not significant if p>0.1.

[1] = HC030031 10 μM, coriander seed oil 0.001%

Row | reduction of the activation of TRPA1 (AITC-stimulated keratinocyte-neuron co-culture, coriander seed oil 0.001%) | % protection (against 1 mM AITC stimulation, HC030031 10 μM, coriander seed oil 0.001%) | % stimulation (relative to cells stimulated with 1 mM AITC, HC030031 10 μM, coriander seed oil 0.001%) | Compound | Activation of TRPA1 following stimulation with AITC, fluorescence, Mean +/- sem [1] | increase in the activation of TRPA1 vs non-stimulated cells (keratinocyte-neuron co-culture, AITC stimulation)
1 | 88% | 88% | 25% | CC(C)c1ccc(NC(=O)Cn2cnc3c2c(=O)n(C)c(=O)n3C)cc1 [HC030031] | 8537 +/− 553*** AU | –
2 | – | – | – | C=CCN=C=S [AITC, allyl isothiocyanate] | 34035 +/− 1910*** AU | 585%
